Measured values taken from patent publication US8937072B2, “Substituted cyanoaniline compounds, preparation and use thereof” (Sinochem Corporation, priority 2011, dated 2015).
Read-outs that look alike come from different tables or passages of the source.

Columns and labels:
wheat powdery mildew = assay: Protectant activity in vivo (whole plant) against wheat powdery mildew; conditions: for pest or weed control at 400 µg/mL: Triticum aestivum, 168 h
Protocol: The method is as followed: The whole plant is used in this test. The compound is dissolved in a proper solvent to get mother solution. The proper solvent is selected from acetone, methanol, DMF and so on according to their dissolving capability to the sample. The volume rate of solvent and testing solution (v/v) is equal to or less than 5%. The mother solution is diluted with water containing 0.1% tween-80 to get the testing solution whose concentration is designed. The testing solution is sprayed to the host plant by a special plant sprayer. The plant is inoculated with fungus after 24 hours. According to the infecting characteristic of fungus, the plant is stored in a humidity chamber and then transferred into greenhouse after infection is finished. And the other plants are placed in greenhouse directly. The activity of compound is obtained by eyeballing after 7 days in common.

cucumber downy mildew = assay: Protectant activity in vivo (whole plant) against cucumber downy mildew; conditions: for pest or weed control at 25 µg/mL / pest or weed control at 12.5 µg/mL / pest or weed control at 50 µg/mL / pest or weed control at 100 µg/mL / pest or weed control at 400 µg/mL: Cucumis sativus, 168 h; for pest or weed control at 12.5 µg/mL: 12.5 mg/L; for pest or weed control at 50 µg/mL: 50 mg/L; for pest or weed control at 100 µg/mL: 100 mg/L
Outline: (§1)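 Compound stock in organic solvent (≤5% v/v) diluted in water with 0.1% Tween-80 and sprayed onto whole host plants. Fungal inoculation 24 h later; humidity chamber then greenhouse as the pathogen requires. Activity rated visually, usually after 7 days.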

cucumber gray mold = assay: Activity in vitro (96-well, High Through Put): inhibition rate against cucumber gray mold; assay type: cell-based; conditions: for inhibition at 25 µg/mL: dose 25 mg/L
Outline: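 Compound in acetone, methanol or DMF was combined with pathogen suspension under sterile conditions and held in a constant-temperature box. After 24 hours germination or growth was scored by eye against an untreated control to give the inhibition rate.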

rice blast = assay: microbe, parasite or virus in culture; assay type: cell-based; conditions: for the inhibition rate against rice blast (%) 0.03 mg/L: Table 21, 0.03 mg/L; for the inhibition rate against rice blast (%) 0.1 mg/L: Table 21, 0.1 mg/L; for the inhibition rate against rice blast (%) 0.3 mg/L: Table 21, 0.3 mg/L; for inhibition at 0.03 µg/mL: read-out: the inhibition rate against rice blast (%) 0.03 mg/L; for inhibition at 0.1 µg/mL: read-out: the inhibition rate against rice blast (%) 0.1 mg/L
corn rust = assay: Protectant activity in vivo (whole plant) against corn rust; conditions: for pest or weed control at 400 µg/mL / pest or weed control at 6.25 µg/mL / pest or weed control at 25 µg/mL / pest or weed control at 100 µg/mL: Zea mays, 168 h
Outline: as §1

[1] = dose 25 mg/L, read-out: protectant activity against cucumber downy mildew in vivo
[2] = 0.9 mg/L, read-out: the inhibition rate against cucumber gray mold (%)
[3] = 2.8 mg/L, read-out: the inhibition rate against cucumber gray mold (%)
[4] = 8.3 mg/L, read-out: the inhibition rate against cucumber gray mold (%)
[5] = Pyricularia oryzae, read-out: inhibition rate against rice blast
[6] = Pyricularia oryzae, read-out: the inhibition rate against rice blast (%) 0.3 mg/L
[7] = 400 mg/L, read-out: the protectant activity (%) against corn rust
[8] = dose 400 mg/L, read-out: protectant activity against corn rust in vivo
[9] = 25 mg/L, read-out: the protectant activity (%) against cucumber downy mildew
[10] = read-out: the protectant activity (%) against cucumber downy mildew

N#Cc1cc([N+](=O)[O-])cc(Br)c1Nc1c(Cl)c(Cl)c(C#N)c(C#N)c1Cl [Compound A-42]
98%: protectant activity against wheat powdery mildew in vivo (wheat powdery mildew; dose 400 mg/L)
80%: protectant activity against wheat powdery mildew in vivo (wheat powdery mildew; dose 100 mg/L)

N#Cc1c(Cl)c(Cl)c(Cl)c(Cl)c1C#N [STM-2]
0%: inhibition at 0.3 µg/mL (cucumber gray mold; 0.3 mg/L) | inhibition at 0.9 µg/mL (cucumber gray mold; [2]) | inhibition at 2.8 µg/mL (cucumber gray mold; [3]) | inhibition at 8.3 µg/mL (cucumber gray mold; [4]) | inhibition at 25 µg/mL (cucumber gray mold; in vitro) | pest or weed control at 400 µg/mL (wheat powdery mildew; dose 400 mg/L)
70%: pest or weed control at 400 µg/mL (corn rust; [7])
50%: inhibition at 25 µg/mL (rice blast; [5]) | inhibition at 0.3 µg/mL (rice blast; [6])
10%: pest or weed control at 25 µg/mL (cucumber downy mildew; [1])

N#Cc1c(Cl)c(Cl)c(Nc2cc(Cl)c(C(F)(F)F)cc2Cl)c(C#N)c1Cl [Compound B-52]
70%: the protectant activity (%) against corn rust (corn rust; 6.25 mg/L)
0%: the inhibition rate against cucumber gray mold (%) (cucumber gray mold; 0.3 mg/L)
98%: the protectant activity (%) against corn rust (corn rust; 25 mg/L)
100%: the inhibition rate against cucumber gray mold (%) (cucumber gray mold; 0.9 mg/L) | the inhibition rate against cucumber gray mold (%) (cucumber gray mold; 2.8 mg/L) | the inhibition rate against cucumber gray mold (%) (cucumber gray mold; 8.3 mg/L) | the inhibition rate against rice blast (%) 0.03 mg/L (rice blast) | the inhibition rate against rice blast (%) 0.1 mg/L (rice blast) | the inhibition rate against rice blast (%) 0.3 mg/L (rice blast) | the protectant activity (%) against corn rust (corn rust; 100 mg/L) | the protectant activity (%) against corn rust (corn rust; 400 mg/L) | protectant activity against corn rust in vivo (corn rust; dose 100 mg/L) | protectant activity against corn rust in vivo (corn rust; dose 400 mg/L) | protectant activity against wheat powdery mildew in vivo (wheat powdery mildew; dose 400 mg/L)

COc1ccc(Nc2c(Cl)c(Cl)c(C#N)c(Cl)c2C#N)cc1 [KC4]
50%: inhibition at 2.8 µg/mL (cucumber gray mold; [3]) | inhibition at 2.8 µg/mL (cucumber gray mold; in vitro, dose 2.8 mg/L, read-out: inhibition rate against cucumber gray mold)
0%: pest or weed control at 25 µg/mL (cucumber downy mildew; [1]) | inhibition at 0.3 µg/mL (cucumber gray mold; 0.3 mg/L) | inhibition at 0.9 µg/mL (cucumber gray mold; [2]) | inhibition at 0.9 µg/mL (cucumber gray mold; in vitro, dose 0.9 mg/L, read-out: inhibition rate against cucumber gray mold) | inhibition at 0.9 µg/mL (rice blast; [5]) | inhibition at 0.03 µg/mL (rice blast; Pyricularia oryzae) | inhibition at 0.1 µg/mL (rice blast; Pyricularia oryzae) | inhibition at 0.3 µg/mL (rice blast; [6]) | pest or weed control at 6.25 µg/mL (corn rust; 6.25 mg/L) | pest or weed control at 25 µg/mL (corn rust; 25 mg/L) | pest or weed control at 100 µg/mL (corn rust; 100 mg/L) | pest or weed control at 400 µg/mL (corn rust; [7]) | pest or weed control at 400 µg/mL (corn rust; [8]) | pest or weed control at 400 µg/mL (wheat powdery mildew; dose 400 mg/L)
100%: inhibition at 8.3 µg/mL (cucumber gray mold; [4])

Cc1cc(Nc2c(Cl)c(Cl)c(C#N)c(Cl)c2C#N)c(C)cc1Cl [KC6]
0%: inhibition at 0.3 µg/mL (cucumber gray mold; 0.3 mg/L) | inhibition at 0.9 µg/mL (cucumber gray mold; [2]) | inhibition at 25 µg/mL (cucumber gray mold; in vitro) | inhibition at 0.3 µg/mL (rice blast; [5]) | inhibition at 0.03 µg/mL (rice blast; Pyricularia oryzae) | inhibition at 0.1 µg/mL (rice blast; Pyricularia oryzae) | inhibition at 0.3 µg/mL (rice blast; [6]) | pest or weed control at 6.25 µg/mL (corn rust; 6.25 mg/L) | pest or weed control at 25 µg/mL (corn rust; 25 mg/L) | pest or weed control at 100 µg/mL (corn rust; 100 mg/L) | pest or weed control at 400 µg/mL (corn rust; [7]) | pest or weed control at 400 µg/mL (corn rust; [8]) | pest or weed control at 400 µg/mL (wheat powdery mildew; dose 400 mg/L)

N#Cc1c(Cl)c(Cl)c(Nc2ccc(Cl)cc2)c(C#N)c1Cl [KC2]
0%: pest or weed control at 12.5 µg/mL (cucumber downy mildew) | pest or weed control at 25 µg/mL (cucumber downy mildew; [9]) | pest or weed control at 50 µg/mL (cucumber downy mildew; [10]) | pest or weed control at 100 µg/mL (cucumber downy mildew; [10]) | pest or weed control at 400 µg/mL (cucumber downy mildew; dose 400 mg/L) | inhibition at 0.3 µg/mL (cucumber gray mold; 0.3 mg/L) | inhibition at 0.9 µg/mL (cucumber gray mold; [2]) | inhibition at 2.8 µg/mL (cucumber gray mold; [3]) | inhibition at 8.3 µg/mL (cucumber gray mold; [4]) | inhibition at 25 µg/mL (cucumber gray mold; in vitro) | inhibition at 25 µg/mL (rice blast; [5]) | inhibition at 0.03 µg/mL (rice blast; Pyricularia oryzae) | inhibition at 0.1 µg/mL (rice blast; Pyricularia oryzae) | inhibition at 0.3 µg/mL (rice blast; [6]) | pest or weed control at 6.25 µg/mL (corn rust; 6.25 mg/L) | pest or weed control at 25 µg/mL (corn rust; 25 mg/L) | pest or weed control at 100 µg/mL (corn rust; 100 mg/L) | pest or weed control at 400 µg/mL (corn rust; [7]) | pest or weed control at 400 µg/mL (corn rust; [8]) | pest or weed control at 400 µg/mL (wheat powdery mildew; dose 400 mg/L)

N#Cc1c(F)c(F)c(C#N)c(Nc2c(Cl)cc(C(F)(F)F)cc2Cl)c1F [Compound C-98]
80%: inhibition rate against cucumber gray mold (cucumber gray mold; in vitro, dose 8.3 mg/L) | protectant activity against wheat powdery mildew in vivo (wheat powdery mildew; dose 100 mg/L)
100%: protectant activity against corn rust in vivo (corn rust; dose 400 mg/L) | protectant activity against wheat powdery mildew in vivo (wheat powdery mildew; dose 400 mg/L)

N#Cc1c(F)c(F)c(C#N)c(Nc2ccc(C(F)(F)F)cc2Cl)c1F [Compound C-82]
100%: protectant activity against cucumber downy mildew in vivo (cucumber downy mildew; dose 400 mg/L) | protectant activity against wheat powdery mildew in vivo (wheat powdery mildew; dose 400 mg/L)

N#Cc1c(Cl)c(Cl)c(Nc2nc(Cl)c(Cl)c(Cl)c2Cl)c(C#N)c1Cl [Compound B-128b]
100%: protectant activity against cucumber downy mildew in vivo (cucumber downy mildew; dose 100 mg/L) | protectant activity against cucumber downy mildew in vivo (cucumber downy mildew; dose 400 mg/L) | the inhibition rate against rice blast (%) 0.3 mg/L (rice blast) | protectant activity against corn rust in vivo (corn rust; dose 400 mg/L)
80%: the inhibition rate against rice blast (%) 0.03 mg/L (rice blast) | the inhibition rate against rice blast (%) 0.1 mg/L (rice blast) | protectant activity against wheat powdery mildew in vivo (wheat powdery mildew; dose 400 mg/L)

N#Cc1c(F)c(F)c(C#N)c(Nc2ccc(Cl)c(C(F)(F)F)c2)c1F [Compound C-91]
100%: protectant activity against wheat powdery mildew in vivo (wheat powdery mildew; dose 400 mg/L)
95%: protectant activity against wheat powdery mildew in vivo (wheat powdery mildew; dose 100 mg/L)
70%: protectant activity against wheat powdery mildew in vivo (wheat powdery mildew; dose 6.25 mg/L)

N#Cc1c(Cl)c(Cl)c(C#N)c(Nc2c(Cl)cc(C(F)(F)F)cc2Cl)c1Cl [Compound C-50]
100%: the inhibition rate against rice blast (%) 0.03 mg/L (rice blast) | the inhibition rate against rice blast (%) 0.1 mg/L (rice blast) | the inhibition rate against rice blast (%) 0.3 mg/L (rice blast) | protectant activity against corn rust in vivo (corn rust; dose 400 mg/L) | protectant activity against wheat powdery mildew in vivo (wheat powdery mildew; dose 400 mg/L)

N#Cc1c(F)c(F)c(Nc2ccccc2)c(F)c1C#N [KC13]
0%: pest or weed control at 12.5 µg/mL (cucumber downy mildew) | pest or weed control at 25 µg/mL (cucumber downy mildew; [9]) | pest or weed control at 50 µg/mL (cucumber downy mildew; [10]) | pest or weed control at 100 µg/mL (cucumber downy mildew; [10]) | pest or weed control at 400 µg/mL (cucumber downy mildew; dose 400 mg/L) | inhibition at 0.3 µg/mL (cucumber gray mold; 0.3 mg/L) | inhibition at 0.9 µg/mL (cucumber gray mold; [2]) | inhibition at 2.8 µg/mL (cucumber gray mold; [3]) | inhibition at 8.3 µg/mL (cucumber gray mold; [4]) | inhibition at 25 µg/mL (cucumber gray mold; in vitro) | pest or weed control at 6.25 µg/mL (corn rust; 6.25 mg/L) | pest or weed control at 25 µg/mL (corn rust; 25 mg/L) | pest or weed control at 100 µg/mL (corn rust; 100 mg/L) | pest or weed control at 400 µg/mL (corn rust; [7]) | pest or weed control at 400 µg/mL (corn rust; [8]) | pest or weed control at 400 µg/mL (wheat powdery mildew; dose 400 mg/L)

COc1ccc(Nc2c(Cl)c(F)c(C#N)c(F)c2C#N)cc1 [KC20]
0%: pest or weed control at 12.5 µg/mL (cucumber downy mildew) | pest or weed control at 25 µg/mL (cucumber downy mildew; [9]) | pest or weed control at 50 µg/mL (cucumber downy mildew; [10]) | pest or weed control at 100 µg/mL (cucumber downy mildew; [10]) | pest or weed control at 400 µg/mL (cucumber downy mildew; dose 400 mg/L) | inhibition at 0.3 µg/mL (cucumber gray mold; 0.3 mg/L) | inhibition at 0.9 µg/mL (cucumber gray mold; [2]) | inhibition at 2.8 µg/mL (cucumber gray mold; [3]) | inhibition at 8.3 µg/mL (cucumber gray mold; [4]) | pest or weed control at 400 µg/mL (corn rust; [8]) | pest or weed control at 400 µg/mL (wheat powdery mildew; dose 400 mg/L)
50%: inhibition at 25 µg/mL (cucumber gray mold; in vitro)
